Patent US20240415808A1, “Dosage Regimen for Fexuprazan Injection Composition” (Daewoong Pharmaceutical Co., Ltd., priority 2021, published 2024)
Where “and” joins values, the source holds several entries; their conditions need not be identical. Equal entries are not always repeated.

Key:
[1] = tested on: acidity in the gastrointestinal tract; experiment: injection maintenance therapy test, acidity in the gastrointestinal tract; assay type: in vivo, human; details: healthy adults; for Fraction time pH ≥ 6 over 24 hours post-dose (duration %): 40 mg IV over 30 minutes then 4 mg/hr for 71.5 hours; for Fraction time pH ≥ 4 over 24 hours post-dose (duration %) / Mean pH / Median pH: 40 mg IV then 4 mg/hr for 71.5 hours
Procedure: In order to confirm changes in PD values according to fexuprazan injection maintenance therapy, the test was conducted on eight healthy adults between the ages of 19 and 50. To the test subjects, a total of 100 ml of a solution obtained by mixing 40 mg of a freeze-dried preparation (40 mg/vial) prepared in the same manner as that used in Experimental Example 6, and physiological saline was administered intravenously for 30 minutes. Subsequently, on the first day, a total of 1 L of a solution obtained by mixing 94 mg of freeze-dried formulation (40 mg/vial) and physiological saline was administered intravenously as a maintenance dose for 23.5 hours. On the second and third days, a total of 1 L of a solution obtained by mixing 96 mg of freeze-dried formulation (40 mg/vial) and physiological saline was administered intravenously for 24 hours. That is, as a maintenance dose, a total of 3 L of a solution of 286 mg of lyophilized formulation (40 mg/vial) mixed with physiological saline was administered intravenously for 71.5 hours at a rate of 4 mg/hr. The acidity in the gastrointestinal tract was tested on the first and third days, respectively, and the results are shown in Table 14 and FIG. 15 below.

[2] = oral vs intravenous two-way crossover clinical trial, pharmacokinetics / bioavailability; assay type: in vivo; details: human, blood, healthy adults; for Cmax: n 8
Text: Therefore, in order to compare the safety/PK/PD of the compound of the present invention during single intravenous administration and during single oral administration and derive the bioavailability, the clinical trial was designed as a randomized, open-label, single-dose, two-period, two-way crossover trial in healthy adults. The selection/exclusion criteria were the same as in Experimental Example 4. A total of 8 subjects were enrolled, and four subjects each were randomly assigned to sequence group 1 or sequence group 2 in the order in which they passed the screening criteria. All test subjects completed safety, pharmacokinetic, and pharmacodynamic evaluations according to the planned clinical trial schedule.
A screening visit was performed 3 to 28 days before the start of the clinical trial, and hospital admission was performed 2 days before medication. The first phase medication was performed according to the order group randomly assigned on the morning of the day. A stabilizer (200 mg), a freeze-drying auxiliary agent (200 mg), and the previously prepared fexuprazan hydrochloride (40 mg based fexuprazan weight) were dissolved in water for injection (4 mL), an appropriate amount of acid was added thereto. A composition whose pH was adjusted to 4.0 was administered intravenously, or an excipient (100 mg), a disintegrant (5 mg), and the previously prepared fexuprazan hydrochloride (40 mg based on fexuprazan weight) were mixed and compressed to prepare a tablet, which were administered orally. The hospital discharge was performed on the third day of medication. The second phase medication was performed on the morning of the 8th after hospital admission on the 6th day after the first phase medication. Hospital discharge was performed on the 10th day of medication. Subsequently, a close-out visit was performed between 15 and 18 days after medication (FIG. 6).
Testing of the acidity (pH) in the gastrointestinal tract and gastric secretion promoting hormone gastrin were performed from 24 hours before medication to 24 hours after medication. Blood collection for pharmacokinetics and urine collection for pharmacokinetics were performed for 48 hours from the time of medication.

[3] = 4-week repeated intravenous toxicity test, beagle dog; assay type: in vivo
Procedure: (§1) The previously prepared fexuprazan hydrochloride was dissolved in a solution containing 30 wt. % of polyethylene glycol (Polyethylene Glycol 400) polymer in physiological saline, and the concentration was calculated based on fexuprazan weight so that it could be administered at a liquid volume of 5 mL/kg for rats and 2 mL/kg for beagle dogs to prepare each composition. Toxicity was evaluated by intravenously administering at doses of 0, 2.5, 5, and 10 mg/kg/day to rats and beagle dogs, respectively, once a day for 4 weeks.

[4] = 4-week repeated intravenous toxicity test, rat; assay type: in vivo
Procedure: as §1

[5] = tested on: indomethacin-induced bleeding gastric ulcer; experiment: indomethacin-induced bleeding gastric ulcer model using male rats; assay type: in vivo, rat; details: for Ulcer index (%): 30 min before indomethacin 80 mg/kg oral, autopsy 5 h; for Ulcer index (%) / Gastric erosion state / Gastric hemorrhage state: mean ± SD; for Gastric erosion state / Gastric hemorrhage state: histopathological examination
Procedure: In order to evaluate the efficacy of fexuprazan against bleeding gastric ulcers, an indomethacin-induced bleeding gastric ulcer model using male rats was used.
Specifically, the previously prepared 1-(5-(2,4-difluorophenyl)-1-((3-fluorophenyl)sulfonyl)-4-methoxy-1H-pyrrol-3-yl)-N-methylmethanamine (hereinafter referred to as ‘fexuprazan’) hydrochloride was dissolved in a solution containing 30 wt. % of polyethylene glycol (Polyethylene Glycol 400) polymer in physiological saline. The concentration was adjusted so that 0, 0.1, 0.5, 1, 2 mg/kg based on fexuprazan weight could be administered to each test animal in a liquid volume of 1 mL/kg, and then each test animal was administered through the tail vein as a single dose. In addition, 1 mg/kg of esomeprazole magnesium trihydrate, which is a positive control, based on esomeprazole weight was administered as a single dose through the tail vein in test animals. After 30 minutes, 80 mg/kg of indomethacin was orally administered as a single dose to each test animal to induce gastric bleeding and ulceration. An autopsy was performed 5 hours after administration of indomethacin, and the stomach was removed. Then, the ulcer index (%) was measured using an image program (Leica Application Suite V4), and gastric hemorrhage and erosion state were evaluated through histopathological examination.

[6] = intravenous administration (40 mg)
[7] = 0.1 mg/kg single dose tail vein
[8] = 0.5 mg/kg single dose tail vein

CNCc1cn(S(=O)(=O)c2cccc(F)c2)c(-c2ccc(F)cc2F)c1OC [Fexuprazan, 1-(5-(2,4-difluorophenyl)-1-((3-fluorophenyl)sulfonyl)-4-methoxy-1H-pyrrol-3-yl)-N-methylmethanamine]
Fraction time pH ≥ 6 over 24 hours post-dose (duration %) ([1]; Day 1): 65.40 ± 18.67%
Fraction time pH ≥ 6 over 24 hours post-dose (duration %) ([1]; Day 3): 76.33 (±15.98) % and 76.33 ± 15.98%
Fraction time pH ≥ 4 over 24 hours post-dose (duration %) ([1]; Day 1): 97.87 ± 1.43%
Mean pH ([1]; Day 1): 6.17 ± 0.36
Median pH ([1]; Day 1): 6.28 ± 0.32
Fraction time pH ≥ 4 over 24 hours post-dose (duration %) ([1]; Day 3): 99.85 ± 0.40%
Mean pH ([1]; Day 3): 6.39 ± 0.35
Median pH ([1]; Day 3): 6.44 ± 0.28
AUC(0-inf) [2, 6]: 1150 ± 279 ng·h/mL
AUC(0-t) [2, 6]: 1110 ng·h/mL
Tmax [2, 6]: 0.25 h
half-life [2, 6]: 9.53 ± 2.42 h
Cmax [2, 6]: 277 ng/mL
AUC(0-inf) ([2]; oral administration (40 mg)): 556 ± 299 ng·h/mL
AUC(0-t) ([2]; oral administration (40 mg)): 536 ng·h/mL
Tmax ([2]; oral administration (40 mg)): 2.09 h
half-life ([2]; oral administration (40 mg)): 9.38 ± 1.6 h
Cmax ([2]; oral administration (40 mg) tablet): 49.9 ng/mL
Result: harmless dose ([3]; Beagle dog, 4 weeks, intravenous, doses 0, 2.5, 5, 10): harmless dose 10 mg/kg
toxic symptoms due to the test substance ([3]; beagle dogs, 2.5, 5, 10 mg/kg/day intravenous, 4 weeks): no toxic symptoms due to the test substance were observed in all administration groups
harmless dose ([3]; beagle dogs, intravenous once a day for 4 weeks): 10 mg/kg/day
Result: harmless dose ([4]; Rat, 4 weeks, intravenous, doses 0, 2.5, 5, 10): harmless dose 10 mg/kg
toxic symptoms due to the test substance ([4]; rats, 2.5, 5, 10 mg/kg/day intravenous, 4 weeks): no toxic symptoms due to the test substance were observed in all administration groups
harmless dose ([4]; rats, intravenous once a day for 4 weeks): 10 mg/kg/day
Ulcer index (%) [5, 7]: 9.2 ± 2.3^ %
Gastric erosion state [5, 7]: 2.9 ± 1.2
Gastric hemorrhage state [5, 7]: 1.5 ± 1.6^
Ulcer index (%) [5, 8]: 4.0 ± 1.8 %
Gastric erosion state [5, 8]: 1.3 ± 1.0
Gastric hemorrhage state [5, 8]: 0.5 ± 0.8
Ulcer index (%) ([5]; 1 mg/kg single dose tail vein): 4.2 ± 2.5 %
Gastric erosion state ([5]; 1 mg/kg single dose tail vein): 0.8 ± 0.7
Gastric hemorrhage state ([5]; 1 mg/kg single dose tail vein): 0.3 ± 0.5
Ulcer index (%) ([5]; 2 mg/kg single dose tail vein): 4.2 ± 1.5 %
Gastric erosion state ([5]; 2 mg/kg single dose tail vein): 0.3 ± 0.5
Gastric hemorrhage state ([5]; 2 mg/kg single dose tail vein): 0.3 ± 0.5
minimum effective dose ([5]; single dose tail vein, ulcer index, gastric hemorrhage and erosion state vs excipient group): 0.5 mg/kg
